Measurements reported in patent US20150057349A1 (NESTEC S.A., priority 2012, published 2015).

How the values were obtained:
Nrf2 = Nrf2 reporter assay (ARE-luciferase) in AREc32 cells; type: cell-based; conditions: 24 hours
Method: Activation of Nrf2 was measured using an Nrf2 reporter assay. This assay is based on the AREc32 cell line, from CRX biosciences (Dundee, Scotland), a stably transfected MCF7 (breast adenocarcinoma) cell line that contains a luciferase gene construct under the control of the ARE. […] Anti-oxidative molecules such as Tert-butylhydroquinone (TBHQ) induce luciferase transcription via the activation of Nrf2 that binds to ARE. Luciferase activity is determined using a luciferase kit form Promega (Madison, Wis.). The luciferase activity is proportional to the activation of Nrf2. […] The luciferase activity and the cell viability (ATP measurements) were determined using the Luciferase and Cell Titer-Glo kits from Promega. For each run the luciferase activities, measured in Relative Light Units (RLU), of all the wells were normalized with the mean of the luciferase activity of the cells only of all the plates. […] For each sample the Nrf2 activation was calculated as follows: 1) The Nrf2 fold induction: The Nrf2 fold induction is very useful for screening purposes. […] The luciferase content per sample allows a semi quantification of the Nrf2 activation by reflecting the amount of the Nrf2 activating molecule. […] The cell viability was also measured using a cell Titer-Glo kit (ATP quantification).

AREc32 cells = assay: Cell viability of AREc32 cells (ATP quantification, Cell Titer-Glo); type: cell-based; conditions: 24 hours
Method: To determine the Nrf2 activation the samples were tested on AREc32 cells (seeded in 96 well plates) using 10 independent dilutions (½, ¼, ⅙, 1/10, 1/15, 1/20, 1/25, 1/30, 1/40 and 1/50) and incubated for 24 hours at 37° C. in a 5% CO2/air incubator. The luciferase activity and the cell viability (ATP measurements) were determined using the Luciferase and Cell Titer-Glo kits from Promega.
The cell viability was also measured using a cell Titer-Glo kit (ATP quantification).

NF-κB [1] = assay: NF-κB activity (SEAP and IL-8 production) in HT-29 clone 34 cells; type: cell-based, human
Method: The human colonic adenocarcinoma HT-29 clone 34 cell line (passage 42-50) are adherent cells stably transfected with a NF-κB/SEAP reporter plasmid. They were cultured in DMEM high glucose (4.5 g/L) (Invitrogen) containing 1% of stable L-glutamine and supplemented with 10% of heat inactivated (one hour at 56° C.) Foetal Calf Serum (FCS) (Bioconcept, Allschwil, Switzerland), 1% of Penicillin/Streptomycin (Sigma) and 500 μg/ml of Geneticin (PAA, Pasching, Austria) at 37° C. in a 5% CO2/air incubator. Culture medium was renewed every two days until the cell monolayer reached ˜90% confluence. Cells were sub-cultured using 1× Trypsin/EDTA (Sigma).
(§1) 10000 cells/well were seeded in 200 μl of culture medium in flat bottom white border 96 well plates (Greiner Bio One, Kremsmuenster, Austria). […] 20 μl of experimental medium containing (or not) LPS 055:B5 or rhTNF-α (100 and 10 ng/ml final, respectively) was added and the plates were incubated for 24 hours at 37° C. in a 5% CO2/air incubator.
Cell culture supernatants were then collected for measurement of NF-κB activity (determination of secreted alkaline phosphatase and IL-8 production) using Phosphalight (Applied Biosystems) and IL-8 singleplex (Meso Scale, Gaithersburg, Md.) kits, respectively.

HT-29 clone 34 cells = assay: Cell viability of HT-29 clone 34 cells (ATP, Cell Titer-Glo); type: cell-based, human; conditions: ATP measurement
Method: as §1
Cell viability was determined by measuring ATP using a Cell Titer-Glo kit (Promega). Briefly, remaining adherent HT-29 clone 34 cells were incubated for 10 min at room temperature under horizontal shaking (250 rpm) with 120 μl of Cell Titer-Glo reagent (pre-diluted twice in 1×PBS) and the luminescence was measured using Polarstar microplate reader (BMG, Offenburg, Germany) for 1000 ms with a gain value set to 3500.

NF-κB [2] = assay: NF-κB activity (secreted alkaline phosphatase) in THP-1 blue cells; type: cell-based, human; conditions: THP-1 blue cells stimulated with LPS
Method: Human monocytes/macrophages THP-1 blue cells (passage 16-20) (Invivogen, Toulouse, France) were cultured in modified RPMI medium (ATCC, Manassas, Va.) containing 1 mM of sodium pyruvate, 2 mM of L-glutamine, 4.5 g/L of glucose and 10 mM of HEPES supplemented with 10% of heat inactivated FCS (Bioconcept), 1% of Penicillin/Streptomycin (Sigma) and 500 μg/ml of Zeocin (Invivogen) at 37° C. in a 5% CO2/air incubator. 200000 cells/well were seeded in 100 μl of culture medium in 96 well flat bottom transparent plates. […] 20 μl of culture media containing (or not) LPS 055:B5 (Sigma) (100 ng/ml final) was added and the plates were incubated for 16 hours at 37° C. in a 5% CO2/air incubator. Cell culture supernatants were carefully transferred to 96 well-plates for NF-κB activity measurement which is proportional to the level of secreted alkaline phosphatase. Briefly, 100 μl of supernatants were mixed with 150 μl of QuantiBlue (Invivogen) in a 96 well-plates incubated for 3 h at 37° C. before OD measurements at 620 nm with Sunrise microplate reader (Tecan, Mannedorf, Switzerland). Cell viability was determined using Cell Titer-Glo kit as described above.

THP-1 blue cells = assay: Cell viability of THP-1 blue cells (Cell Titer-Glo); type: cell-based, human
Method: 200000 cells/well were seeded in 100 μl of culture medium in 96 well flat bottom transparent plates. […] 20 μl of culture media containing (or not) LPS 055:B5 (Sigma) (100 ng/ml final) was added and the plates were incubated for 16 hours at 37° C. in a 5% CO2/air incubator.
Cell culture supernatants were carefully transferred to 96 well-plates for NF-κB activity measurement which is proportional to the level of secreted alkaline phosphatase. Briefly, 100 μl of supernatants were mixed with 150 μl of QuantiBlue (Invivogen) in a 96 well-plates incubated for 3 h at 37° C. before OD measurements at 620 nm with Sunrise microplate reader (Tecan, Mannedorf, Switzerland). Cell viability was determined using Cell Titer-Glo kit as described above.

[3] = HT-29 clone 34 cells stimulated with LPS

SMILES: CC(=O)/C=C/C(=O)O [4-oxo-2-pentenoic acid]
- Nrf2 activation (in words) (Nrf2): strongly activate Nrf2 in a dose dependent manner
- Optimal dose of Nrf2 activation (Nrf2; dose range 0 to 200 μM): 40 to 50 µM
- Doses at which viability of AREc32 cells was not affected (AREc32 cells): lower than 70 μM
- Dose giving the best inhibition of SEAP and IL-8 secretion (NF-κB [1]; [3]): 50 µM
- Inhibition of NF-κB activity (in words) (NF-κB [1]; [3]): inhibits NF-κB activity in a dose dependent manner
- NF-κB activity (SEAP or IL-8) in the absence of LPS (NF-κB [1]; HT-29 clone 34 cells, no LPS, doses tested 3 to 400 μM): no NF-κB activity was observed
- Doses giving a decrease in cell viability of HT-29 clone 34 cells (HT-29 clone 34 cells): > 50 µM
- Doses giving strong NF-κB inhibition (NF-κB [2]): 40 to 75 µM
- Doses toxic to cells (THP-1 blue cells): higher than 75 μM
